The source of these data is publication PMC4290623, “Homopharma: A new concept for exploring the molecular binding mechanisms and drug repurposing” (BMC Genomics, 2014).

Common to all, as to assay: In vitro enzymatic profiling, HotSpot assay platform
Format in all cases: biochemical

The target of one assay is T1, KIT (Homo sapiens, UniProt P10721).
T1 construct: purchased Reaction Biology Corporation
The settings on record: inhibitor 10 μM, ATP 10 μM. As for the experimental part: (§1) In vitro enzymatic profiling of the 32 member kinase panel was performed at Reaction Biology Corporation (http://www.reactionbiology.com, Malvern, PA) using the "HotSpot" assay platform. Each kinase activity assay was performed in duplicate with inhibitor concentration of 10 μM and an ATP concentration of 10 μM.

The target of the next assay is T2, SRC (Homo sapiens, UniProt P12931).
T2 construct: purchased Reaction Biology Corporation
T2 sequence (P12931 whole entry): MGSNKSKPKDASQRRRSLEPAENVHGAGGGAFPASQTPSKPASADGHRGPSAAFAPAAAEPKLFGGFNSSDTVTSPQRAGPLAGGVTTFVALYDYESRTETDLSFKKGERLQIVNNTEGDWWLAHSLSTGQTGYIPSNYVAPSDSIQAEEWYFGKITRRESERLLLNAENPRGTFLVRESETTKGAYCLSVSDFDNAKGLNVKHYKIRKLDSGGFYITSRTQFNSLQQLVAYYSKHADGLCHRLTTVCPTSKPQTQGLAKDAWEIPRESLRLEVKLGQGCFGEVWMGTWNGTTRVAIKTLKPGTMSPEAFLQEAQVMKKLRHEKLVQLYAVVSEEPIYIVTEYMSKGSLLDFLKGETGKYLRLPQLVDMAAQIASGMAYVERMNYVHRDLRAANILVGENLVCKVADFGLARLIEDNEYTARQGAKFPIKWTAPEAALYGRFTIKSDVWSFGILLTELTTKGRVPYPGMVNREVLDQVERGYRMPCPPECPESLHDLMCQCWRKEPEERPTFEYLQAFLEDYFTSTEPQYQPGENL
To be noted: inhibitor 10 μM, ATP 10 μM. On the procedure: as §1

For a further assay, the target named is T3, MAPK3 (Homo sapiens, UniProt P27361).
T3 construct: purchased Reaction Biology Corporation
To be noted: inhibitor 10 μM, ATP 10 μM. On the procedure:
as §1

The target of another assay is T4, AKT2 (Homo sapiens, UniProt P31751).
T4 construct: purchased Reaction Biology Corporation
T4 sequence (P31751 whole entry): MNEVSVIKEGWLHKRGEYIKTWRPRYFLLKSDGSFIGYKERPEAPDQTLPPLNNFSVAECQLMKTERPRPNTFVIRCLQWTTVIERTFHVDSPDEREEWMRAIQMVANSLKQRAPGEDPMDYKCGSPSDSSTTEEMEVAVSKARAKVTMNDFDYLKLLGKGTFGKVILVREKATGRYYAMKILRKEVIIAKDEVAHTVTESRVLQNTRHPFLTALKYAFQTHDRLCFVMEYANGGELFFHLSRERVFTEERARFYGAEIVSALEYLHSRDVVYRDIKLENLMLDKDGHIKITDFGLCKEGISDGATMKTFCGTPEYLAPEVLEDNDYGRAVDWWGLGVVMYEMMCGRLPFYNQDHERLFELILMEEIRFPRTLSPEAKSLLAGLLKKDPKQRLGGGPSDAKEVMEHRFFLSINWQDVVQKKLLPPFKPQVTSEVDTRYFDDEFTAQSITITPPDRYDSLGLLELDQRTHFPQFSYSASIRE
The settings on record: inhibitor 10 μM, ATP 10 μM. As for the experimental part: as §1

A further assay addresses T5, EGFR (Homo sapiens, UniProt P00533).
T5 construct: purchased Reaction Biology Corporation
The settings on record: inhibitor 10 μM, ATP 10 μM. As for the experimental part: as §1

For a further assay, the target named is T6, IGF1R (Homo sapiens, UniProt P08069).
T6 construct: purchased Reaction Biology Corporation
T6 sequence (P08069 31-1367): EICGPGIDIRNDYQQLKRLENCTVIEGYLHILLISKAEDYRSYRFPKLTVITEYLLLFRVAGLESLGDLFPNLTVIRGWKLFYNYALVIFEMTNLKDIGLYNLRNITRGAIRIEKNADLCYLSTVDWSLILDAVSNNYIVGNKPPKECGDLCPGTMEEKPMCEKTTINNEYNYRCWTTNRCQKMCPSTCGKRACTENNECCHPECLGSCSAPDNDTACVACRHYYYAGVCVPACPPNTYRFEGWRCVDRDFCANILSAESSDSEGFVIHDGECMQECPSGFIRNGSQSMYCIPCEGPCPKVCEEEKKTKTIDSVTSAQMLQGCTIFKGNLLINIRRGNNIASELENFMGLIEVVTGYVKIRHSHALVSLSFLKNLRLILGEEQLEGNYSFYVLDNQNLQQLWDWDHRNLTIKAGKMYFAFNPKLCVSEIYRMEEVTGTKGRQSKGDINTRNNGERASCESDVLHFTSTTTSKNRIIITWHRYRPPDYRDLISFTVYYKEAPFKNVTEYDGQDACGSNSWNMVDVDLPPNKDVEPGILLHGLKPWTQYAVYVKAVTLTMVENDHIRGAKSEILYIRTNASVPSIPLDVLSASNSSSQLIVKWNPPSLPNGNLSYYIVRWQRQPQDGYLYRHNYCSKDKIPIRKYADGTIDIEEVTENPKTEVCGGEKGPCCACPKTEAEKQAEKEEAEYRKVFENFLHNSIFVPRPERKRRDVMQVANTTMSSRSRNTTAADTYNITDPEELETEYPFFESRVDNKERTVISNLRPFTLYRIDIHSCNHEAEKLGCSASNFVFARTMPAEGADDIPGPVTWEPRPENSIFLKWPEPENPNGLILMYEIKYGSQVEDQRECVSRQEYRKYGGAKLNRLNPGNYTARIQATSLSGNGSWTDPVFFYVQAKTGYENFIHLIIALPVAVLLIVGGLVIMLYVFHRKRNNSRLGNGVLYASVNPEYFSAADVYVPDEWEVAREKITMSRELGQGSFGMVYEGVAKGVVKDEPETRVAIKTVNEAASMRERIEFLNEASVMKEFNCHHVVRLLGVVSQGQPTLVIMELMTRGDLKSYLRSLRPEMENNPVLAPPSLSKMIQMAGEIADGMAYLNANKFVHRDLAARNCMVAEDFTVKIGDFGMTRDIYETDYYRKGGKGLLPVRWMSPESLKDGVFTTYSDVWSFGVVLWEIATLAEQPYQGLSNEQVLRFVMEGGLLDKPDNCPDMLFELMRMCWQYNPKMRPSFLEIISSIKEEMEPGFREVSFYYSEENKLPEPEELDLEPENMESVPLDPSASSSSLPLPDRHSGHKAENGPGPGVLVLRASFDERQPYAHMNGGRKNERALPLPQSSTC
To be noted: inhibitor 10 μM, ATP 10 μM; for IC50: duplicate, read-out: IC50 (bioactivity in the kinome picture). On the procedure:
as §1

Another assay addresses T7, LCK (Homo sapiens, UniProt P06239).
T7 construct: purchased Reaction Biology Corporation
The settings on record: inhibitor 10 μM, ATP 10 μM. As for the experimental part:
as §1

The next assay deals with T8, FGFR1 (Homo sapiens, UniProt P11362).
T8 construct: purchased Reaction Biology Corporation
T8 sequence (P11362 22-822): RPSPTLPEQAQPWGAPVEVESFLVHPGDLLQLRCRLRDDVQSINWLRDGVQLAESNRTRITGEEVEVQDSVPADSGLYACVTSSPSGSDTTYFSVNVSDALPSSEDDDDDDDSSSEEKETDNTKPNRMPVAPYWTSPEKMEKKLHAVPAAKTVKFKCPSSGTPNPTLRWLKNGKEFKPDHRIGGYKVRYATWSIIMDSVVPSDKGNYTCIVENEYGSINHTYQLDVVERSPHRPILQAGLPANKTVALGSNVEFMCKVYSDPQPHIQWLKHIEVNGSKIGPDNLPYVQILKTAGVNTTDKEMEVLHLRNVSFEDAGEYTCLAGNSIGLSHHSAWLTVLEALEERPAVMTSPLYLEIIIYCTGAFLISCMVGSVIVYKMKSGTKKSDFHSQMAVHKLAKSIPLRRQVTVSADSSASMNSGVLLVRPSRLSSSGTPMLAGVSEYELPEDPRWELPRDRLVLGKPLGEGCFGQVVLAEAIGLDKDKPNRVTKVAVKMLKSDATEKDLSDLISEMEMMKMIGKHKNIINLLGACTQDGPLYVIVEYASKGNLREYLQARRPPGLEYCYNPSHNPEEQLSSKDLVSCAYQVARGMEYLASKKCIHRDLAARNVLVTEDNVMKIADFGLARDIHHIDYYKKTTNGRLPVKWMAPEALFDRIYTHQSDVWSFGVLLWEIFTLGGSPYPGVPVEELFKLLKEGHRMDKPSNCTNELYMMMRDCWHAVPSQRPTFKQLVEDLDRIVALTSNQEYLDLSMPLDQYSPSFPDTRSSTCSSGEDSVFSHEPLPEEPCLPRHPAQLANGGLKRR
To be noted: inhibitor 10 μM, ATP 10 μM; for IC50: duplicate, read-out: IC50 (bioactivity in the kinome picture). On the procedure:
as §1

The next assay has as its target T9, CAMK2G (Homo sapiens, UniProt Q13555).
T9 construct: purchased Reaction Biology Corporation
The settings on record: inhibitor 10 μM, ATP 10 μM, duplicate, read-out: IC50 (bioactivity in the kinome picture). On the procedure: In vitro enzymatic profiling of the 32 member kinase panel was performed at Reaction Biology Corporation (http://www.reactionbiology.com, Malvern, PA) using the "HotSpot" assay platform. Each kinase activity assay was performed in duplicate with inhibitor concentration of 10 μM and an ATP concentration of 10 μM. […] Another compound JMY84 could also be used as drug candidates of colorectal cancer due to its effects on CHEK2, LIMK1, and FGFR1 (Figures 5D and 5E).

A further assay concerns the target T10, INSR (Homo sapiens, UniProt P06213).
T10 construct: purchased Reaction Biology Corporation
The settings on record: inhibitor 10 μM, ATP 10 μM, duplicate, read-out: IC50 (bioactivity in the kinome picture). On the procedure:
as §1

The next assay deals with T11, CHEK2 (Homo sapiens, UniProt O96017).
T11 construct: purchased Reaction Biology Corporation
The settings on record: inhibitor 10 μM, ATP 10 μM. As for the experimental part:
as §1

A further assay concerns the target T12, LIMK1 (Homo sapiens, UniProt P53667).
T12 construct: purchased Reaction Biology Corporation
The settings on record: inhibitor 10 μM, ATP 10 μM. On the procedure:
as §1

The target of another assay is T13, CSNK2A1 (Homo sapiens, UniProt P68400).
T13 construct: purchased Reaction Biology Corporation
To be noted: inhibitor 10 μM, ATP 10 μM, duplicate, read-out: IC50 (bioactivity in the kinome picture). As for the experimental part: In vitro enzymatic profiling of the 32 member kinase panel was performed at Reaction Biology Corporation (http://www.reactionbiology.com, Malvern, PA) using the "HotSpot" assay platform. […]

Each structure is given as a SMILES string.

T5 sequence (P00533 25-1210): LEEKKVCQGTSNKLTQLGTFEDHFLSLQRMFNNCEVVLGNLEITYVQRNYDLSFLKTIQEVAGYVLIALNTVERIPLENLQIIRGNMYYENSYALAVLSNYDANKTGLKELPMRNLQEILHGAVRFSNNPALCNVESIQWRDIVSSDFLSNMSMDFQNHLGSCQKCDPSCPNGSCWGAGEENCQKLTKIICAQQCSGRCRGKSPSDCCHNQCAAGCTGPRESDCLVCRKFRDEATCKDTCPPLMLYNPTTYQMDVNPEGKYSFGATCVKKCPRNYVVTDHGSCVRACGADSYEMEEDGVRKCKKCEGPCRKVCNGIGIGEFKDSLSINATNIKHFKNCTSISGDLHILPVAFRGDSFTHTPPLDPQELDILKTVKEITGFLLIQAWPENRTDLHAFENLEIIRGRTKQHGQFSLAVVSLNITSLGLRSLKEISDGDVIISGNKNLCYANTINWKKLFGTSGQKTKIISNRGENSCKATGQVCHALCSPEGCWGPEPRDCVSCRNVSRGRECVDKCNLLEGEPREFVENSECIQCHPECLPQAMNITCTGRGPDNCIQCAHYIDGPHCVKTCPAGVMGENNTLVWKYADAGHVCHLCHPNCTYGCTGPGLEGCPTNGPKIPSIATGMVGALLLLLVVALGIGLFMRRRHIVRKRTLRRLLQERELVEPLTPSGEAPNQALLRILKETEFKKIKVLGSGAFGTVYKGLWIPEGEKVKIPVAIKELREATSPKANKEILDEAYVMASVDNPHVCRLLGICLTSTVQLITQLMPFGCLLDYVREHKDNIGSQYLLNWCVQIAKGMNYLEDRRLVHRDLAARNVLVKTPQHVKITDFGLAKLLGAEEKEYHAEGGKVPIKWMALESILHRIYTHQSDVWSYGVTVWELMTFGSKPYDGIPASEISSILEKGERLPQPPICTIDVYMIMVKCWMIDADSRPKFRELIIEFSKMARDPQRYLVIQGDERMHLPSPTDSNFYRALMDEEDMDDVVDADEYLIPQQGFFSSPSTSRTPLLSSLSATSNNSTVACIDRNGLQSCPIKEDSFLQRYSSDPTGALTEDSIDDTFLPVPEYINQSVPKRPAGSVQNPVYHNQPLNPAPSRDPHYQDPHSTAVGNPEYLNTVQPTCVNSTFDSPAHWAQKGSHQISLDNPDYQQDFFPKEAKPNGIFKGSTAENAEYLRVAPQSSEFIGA
T12 sequence (P53667 whole entry): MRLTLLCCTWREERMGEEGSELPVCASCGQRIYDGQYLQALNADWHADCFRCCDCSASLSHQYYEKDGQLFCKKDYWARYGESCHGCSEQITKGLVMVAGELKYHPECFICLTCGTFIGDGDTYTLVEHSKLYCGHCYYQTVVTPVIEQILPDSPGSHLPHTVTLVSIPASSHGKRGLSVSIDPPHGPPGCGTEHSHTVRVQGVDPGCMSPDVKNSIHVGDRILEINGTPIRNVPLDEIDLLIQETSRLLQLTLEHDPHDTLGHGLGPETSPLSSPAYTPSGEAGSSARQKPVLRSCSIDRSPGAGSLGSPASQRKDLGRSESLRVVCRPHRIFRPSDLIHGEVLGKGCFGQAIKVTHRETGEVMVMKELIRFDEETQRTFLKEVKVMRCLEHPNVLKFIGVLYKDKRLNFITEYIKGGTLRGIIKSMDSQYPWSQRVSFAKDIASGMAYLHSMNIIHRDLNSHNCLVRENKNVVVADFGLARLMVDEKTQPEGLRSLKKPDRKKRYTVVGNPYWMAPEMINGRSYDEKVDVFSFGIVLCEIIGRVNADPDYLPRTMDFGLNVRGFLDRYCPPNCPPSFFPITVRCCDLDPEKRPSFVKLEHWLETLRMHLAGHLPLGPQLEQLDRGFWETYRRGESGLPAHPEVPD

In the case of `O=C(Oc1cc(O)c2c(c1)OC(c1ccc(O)c(O)c1)C(O)C2)c1cc(O)c(O)c(O)c1` (stereo not drawn) [JMY65], the “inhibitory activity (in words)” value against KIT, at SRC and at LCK was “inhibitory activities” in each case. In addition, the IC50 at SRC (duplicate, read-out: IC50 (bioactivity in the kinome picture)) was approximately 0.5 µM; at IGF1R, approximately 0.1 µM. In addition, the “inhibitory effect (in words)” value against MAPK3, on AKT2, at EGFR and on IGF1R was “inhibitory effects” each time.

`O=c1c(O)c(-c2ccc(O)c(O)c2)oc2cc(O)cc(O)c12` [Quercetin, quercetin, reference compound]: the concentration for half-maximal inhibition (IC50) at FGFR1 and on CAMK2G was approximately 1 µM each time.

Consider `O=c1cc(-c2ccccc2)oc2cc(O)c(O)c(O)c12` [JMY51], for which the half-inhibitory concentration (IC50) on FGFR1 is approximately 3 µM; on INSR, approximately 2 µM; on IGF1R, approximately 1 µM.

Turning to `O=c1c(O)c(-c2ccc(OC3OC(CO)C(O)[C@@H](O)C3O)c(O)c2)oc2cc(O)cc(O)c12` (stereo partly drawn) [JMY84], the “effect on kinase (in words)” value at FGFR1, at CHEK2 and on LIMK1 was “effects” each time. Also, at CSNK2A1, the IC50 is approximately 1 µM.

Usually IC50 stands for the concentration needed to halve the response being measured.
